Measurements as given in patent US20210198284A1, “GOLD COMPOSITIONS AND METHODS OF USE THEREOF” (THE UNIVERSITY OF MASSACHUSETTS, priority 2018, published 2021).
Read-outs that look alike come from different tables or passages of the source.

How the values were obtained:
A. baumannii NCTC 13420 = experiment: Antibacterial assay, MIC/MBC by broth microdilution (CLSI); format: cell-based; conditions: A. baumannii NCTC 13420; for MIC: repeated twice, a/b = both values
Experimental: (§1) Antibacterial assay. The minimum inhibitory concentrations (MICs) and the minimum bactericidal concentrations (MBCs) were determined by the broth microdilution method as described in the CLSI (The Clinical & Laboratory Standards Institute) guidelines (Performance standards for antimicrobial susceptibility testing: Clinical and Laboratory Standards Institute (CLSI), Twenty-Fifth informational supplement. Document M100-S25: […]; Vol. 35). All bacterial strains were cultured in cation-adjusted Muller Hinton broth (CAMHB) up to log-phase and then diluted to give a concentration of 7.5×10^5 CFU/mL. The gold complexes were dissolved in DMSO or water as stock solutions, which were then serially diluted two-fold in a 96-well plate. Aliquots (100 μL) of the dilutions were mixed with equal volumes of the bacterium suspension in a 96 well plate (in triplicates). The plates were incubated at 37° C. for 18 h without shaking. Negative and positive controls were included in the same well plate with wells having the culture medium only and bacteria solution only, respectively. The sample concentration that gave inhibition values above 90% were determined as MICs as calculated from absorbance values at 600 nm (OD600) obtained using a Tecan SPARK IOM plate reader. To determine minimum bactericidal concentrations (MBCs), agar plates were treated with 5 μL sample solutions from each well, and then incubated at 37° C. for 18 h without shaking. The sample concentration that gave no colony formed on agar plates were determined as MBCs.
(§2) Selection of bacteria. The ESKAPE pathogens were chosen as they are responsible for the majority of nosocomial infections and also as they provide a good scope of strains including both Gram-negative and Gram-positive species. A. baumannii NCTC 13420 was originally identified in 24 hospitals in the UK during 2000-2003, which produced OXA-51-like β-lactamases, and was highly resistant to ampicillin, piperacillin, piperacillin/tazobactam, ceftazidime, cefotaxime, gentamicin and ciprofloxacin. P. aeruginosa NCTC13437 produces VIM-10 metallo-carbapenemase and VEB-1 (Vietnamese extended-spectrum beta-lactamase). Wild-type strain E. cloacae NCTC 13405 (originally named E. cloacae 684) was isolated from patients at the London Hospital during 1982-1983. This strain has inducible AmpC β-lactamase and is resistant to ampicillin/amoxicillin and cefoxitin. K. pneumoniae ATCC 700603 was isolated from the urine of a hospitalized patient in Richmond, Va. in 1994, and it produces SHV-18 extended spectrum beta-lactamase (ESBL). JE2 (USA300) is a methicillin-resistant S. aureus (MRSA) strain, also resistant to beta-lactams, ciprofloxacin, tetracycline, macrolides (erythromycin), lincosamides (clindamycin), streptogramin B, and mupirocin. E. faecium ATCC 700221, a positive fecal VRE (vancomycin-resistant enterococcus) isolate, is resistant to several antibiotics including vancomycin and teicoplanin. The quality control strain, Gram-negative E. coli ATCC 25922, was included in all assays and validated with ciprofloxacin and […].

E. cloacae NCTC 13405 = experiment: as above; format: cell-based; conditions: E. cloacae NCTC 13405; for MIC: repeated twice, a/b = both values
Experimental: as §1, §2

E. coli ATCC 25922 = experiment: as above; format: cell-based; conditions: for MIC: repeated twice, a/b = both values
Experimental: as §1, §2

E. faecalis ATCC 700221 = experiment: as above; format: cell-based; conditions: for MIC: repeated twice, a/b = both values
Experimental: as §1, §2

[1] = tested on: K. pneumoniae ATCC 700603; experiment: as above; format: cell-based; conditions: K. pneumoniae ATCC 700603; for MIC: repeated twice, a/b = both values
Experimental: as §1, §2

P. aeruginosa NCTC 13437 = experiment: as above; format: cell-based; conditions: P. aeruginosa NCTC 13437; for MIC: repeated twice, a/b = both values
Experimental: as §1, §2

S. aureus JE2 (USA300) = experiment: as above; format: cell-based; conditions: S. aureus JE2 (USA300); for MIC: repeated twice, a/b = both values
Experimental: as §1, §2

A549 cells = experiment: Cytotoxicity assay (resazurin); format: cell-based; conditions: 20 h, mean±S.E.M. from two independent experiments
Experimental: Sample preparation. The compounds were dissolved in DMSO at 12.8 mg/mL as the stock solutions, except for compounds 9-17, which were directly dissolved in the culture medium at 12.8 mg/mL. The stock solutions were diluted by the culture medium to the testing concentration at 128 μg/mL (compound 9-17 were diluted to 1,280 μg/mL). The solutions were then serially diluted two fold in a 96-well plate and were used in the cytotoxicity assay immediately.
Cell culture and cytotoxicity assay. A549 cells (ATCC CCL-185) were cultured in high glucose DMEM (Sigma-Aldrich, D6429) supplemented with 10% FBS, 1% penicillin-streptomycin solution (Sigma-Aldrich, P4333), 1% gentamicin solution (Sigma-Aldrich, G1272) and 1% amphotericin B solution (Sigma-Aldrich, A2942) at 37° C. in a humidified atmosphere containing 5% CO2. After cells reached 80%˜90% confluency, they were detached and counted using an Invitrogen Countess automated cell counter. Cells with viability over 90% were seeded at a density of 5×10^3 cells per well in 96-well cell culture plates. After overnight culture, the culture medium in each well removed with a pipet. 80 μL of the compound solutions from each well of the 96-well plate prepared above were transferred to this 96-well plate containing the cells, and the plates were incubated for 20 h. After addition of 8 μL of 110 μg/mL resazurin, the plates were incubated for further 3 h at 37° C. in 5% CO2. The fluorescence intensity was measured using a Tecan M200 Infinite Pro microplate reader at excitation 560 nm, emission 590 nm. IC50 were calculated by curve fitting the inhibition values vs. log(concentration) using GraphPad's Prism. The cytotoxicity assays (in triplicate) were repeated twice using freshly prepared cells and compound solutions.

[2] = Log P determination (n-octanol/water, FAAS)
Experimental: Log P Determination: Calibration curves. Milli-Q Water (150 mL) was added to n-octanol (150 mL), and the mixture was stirred for 3 days to allow both phases to reach saturation. The gold standard solution (1000 ppm Au in hydrochloric acid, Fisher Scientific) was diluted to 1, 2, 3, 4 and 5 ppm with n-octanol-saturated water, and the absorbance of the resulting solutions was measured by flame atomic absorption spectroscopy (FAAS, Agilent Technology 200 Series AA, equipped with a gold HC Lamp-Au coded). The absorbance data were plotted against Au concentration, and the resulting calibration curve was used for determining the concentration of the analogs in the aqueous phase.
To construct the standard calibration curve of the Au concentration in the n-octanol phase, compound 27 was used. The Au concentration in compound 27 was first calibrated against the aqueous gold standard. For this, 0.440 mg of compound 27 was weighed on a Sartorius MC5 microbalance, and then added to 22 mL of n-octanol-saturated water. […] For this, solutions of varying concentrations (0.99, 2.47, 4.94, 5.93, 9.88 ppm) of compound 27 in water-saturated n-octanol were prepared. The absorbance was measured by FAAS, and the data were plotted against the Au concentration to provide a second calibration curve, which was used for determining the Au concentration of the analogs in the n-octanol phase.
Determination of Au concentrations: Method 1. 0.5 to 1 mg of compound was weighed into a 2-mL Eppendorf tube containing 2 mL of n-octanol-saturated water. After shaking for about 4 h, the solution was centrifuged at 6000 rpm for 3 min. 1 mL of the supernatant was transferred to a new tube containing 1 mL of water-saturated n-octanol, and the mixture was shaken for 1 h. After centrifugation at 6000 rpm for 5 min, the two layers were collected and the gold concentration in each layer was determined by FAAS by comparing the absorbance to the first and second calibration curves.
Determination of Au concentrations: Method 2. […] For Method 2, 0.6 to 1 mg of compound was weighed into a 2-mL Eppendorf tube containing 1 mL of n-octanol-saturated water and 1 mL of water-saturated n-octanol. After shaking for 3-4 h, the mixture was centrifuged, and all liquid was transferred to a 15-mL tube. The liquid was then diluted with 2 mL of n-octanol-saturated saturated water and 2 mL of water-saturated n-octanol, and the mixture was shaken for another hour. After centrifugation at 6000 rpm for 5 min, the two layers were collected and the gold concentration in each layer was determined by FAAS by comparing the absorbance to the first and second calibration curves.
Log P was calculated as follows: log P=log[compound]oct/[compound]water

Substance	MBC (in brackets) (A. baumannii NCTC 13420)	MIC (A. baumannii NCTC 13420)	MBC (in brackets) (E. cloacae NCTC 13405)	MIC (E. cloacae NCTC 13405)	MBC (in brackets) (E. coli ATCC 25922)	MIC (E. coli ATCC 25922)	MBC (in brackets) (E. faecalis ATCC 700221)	MBC (in brackets) [1]	MIC [1]	MIC (P. aeruginosa NCTC 13437)	MBC (in brackets) (S. aureus JE2 (USA300))	IC50 against A549 cells (A549 cells) [µg/mL]	Log P [2]	MIC (E. faecalis ATCC 700221)	MBC (in brackets) (P. aeruginosa NCTC 13437)	MIC (S. aureus JE2 (USA300))	Log P ([2]; n-octanol/water, gold by FAAS)
(1-Thio-β-D-glucopyranosato)(trimethylphosphine) gold(I) [Compound 15]	17 μM/mL	17/4	17 μM/mL	4/9	9 (9) μM/mL	9 (9) μM/mL	(0.5) μM/mL	34 (34) μM/mL	34 (34) μM/mL	>547 μM/mL	(1) μM/mL	52.2 ± 1.0	−1.63				
(Benzenethiolato)(triethylphosphine) gold(I) [Compound 18]	(>603) μM/mL	19/75	603 μM/mL	75 μM/mL	(151) μM/mL	151 μM/mL	1 μM/mL		>603 μM/mL	302 (302) μM/mL	(0.6) μM/mL	4.3 ± 0.2	2.20	0.6 μM/mL	302 (302) μM/mL	0.02 μM/mL	
(Tri-n-butylphosphine) gold chloride [Compound 30]	(147) μM/mL	74/147		>589 μM/mL		>589 μM/mL	5 (5) μM/mL	147 (147) μM/mL	147 (147) μM/mL	74 (74) μM/mL	4 μM/mL	4.7 ± 0.0		5 (5) μM/mL	74 (74) μM/mL	2 μM/mL	>3.99
(1-Thio-β-D-galatopyranosato)(trimethylphosphine) gold(I) [Compound 16]	17 μM/mL	17/9	4(4) μM/mL	4(4) μM/mL	9 (9) μM/mL	9 (9) μM/mL	(0.5) μM/mL	34 (34) μM/mL	34 (34) μM/mL	>547 μM/mL	0.3 (0.3) μM/mL	43.0 ± 3.7	−1.88			0.3 (0.3) μM/mL	
(1-Thio-β-D-maltosato)(triethylphosphine) gold(I) [Compound 14]	24 (24) μM/mL	24 (24) μM/mL	190 (190) μM/mL	190 (190) μM/mL	12 (12) μM/mL	12 (12) μM/mL	(0.4) μM/mL		>381 μM/mL	381 (381) μM/mL	4 (0.09) μM/mL	31.0 ± 2.4	−1.69		381 (381) μM/mL		
(Triphenylphosphine) gold chloride [Compound 31]				>518 μM/mL		>518 μM/mL	4 (4) μM/mL		>518 μM/mL	>518 μM/mL	4 μM/mL	12.0 ± 1.8		4 (4) μM/mL		1/2	>3.94
[β-D-galactopyranosyl-(1→4)-β-D-glucopyranosato](triethylphosphine) gold(I) [Compound 13]		24/48	190 (190) μM/mL	190 (190) μM/mL	24 (24) μM/mL	24 (24) μM/mL	(0.4) μM/mL	381 (381) μM/mL	381 (381) μM/mL	381 (381) μM/mL	5 (0.09) μM/mL	32.9 ± 4.6		0.09 μM/mL	381 (381) μM/mL		
